Assay results from patent US10717968B2, “Polymerases for nucleotide analogue incorporation” (Pacific Biosciences of California, Inc., priority 2005, dated 2020).

Tests used:
Format in all cases: biochemical
A633dC4P = experiment: Screening: rate with A633dC4P and dA, dG, dTTP; conditions: for Rate High: 25 μM A633dC4P with 20 μM dA; for Ratio (Low/High): (rate at 5 μM A633dC4P)/(rate at 25 μM A633dC4P), each with 20 μM dA, 1 mM MnCl2, higher ratio = lower Km
[1] = system: Alexa488-O-dA4P, FAM-Alexa532-O-dG4P, FAM-Alexa594-O-dT4P, Alexa633-O-dC4P; experiment: Screening: rate with set of four nucleotide analogues; conditions: four analogues at 10 μM each, 1 mM MnCl2
A488dC4P [2] = experiment: Assay with a single analogue at low concentration (10 μM) and three native nucleotides, A488dC4P; conditions: single analogue at 10 μM and three native nucleotides
Method: (§1) The Φ29 DNA polymerase (parental enzyme or mutant) was preincubated with DNA template (72 nucleotide circular DNA including mostly repetitive sequence AGTC) with annealed DNA primer. The preincubation mix includes three native nucleotides (dTTP, dATP and dGTP) and a terminal labeled nucleotide analogue (A488dC4P or A568dC4P) at 10 μM concentration. After a short preincubation, the reaction was started with MnCl2. The reaction was stopped with EDTA, and the products were separated using agarose gel electrophoresis and stained with SYBR Gold (Invitrogen). The average length of the DNA generated with DNA polymerase was determined and used to estimate the polymerization rate. See, e.g., Table 2 Columns G and H.

[3] = system: DNA template (72 nucleotide circular DNA) with annealed DNA primer; experiment: Processivity assay; conditions: dNTP, MnCl2, heparin trap, 20 min; 1.0 minus Poff
Description: The processivity (dissociation/kb) of the polymerase is estimated in a primer extension reaction performed in the presence of “Trap” (unlabeled competitor DNA or heparin). The processivity assay is designed to select mutants that retain the capability to synthesize a long DNA product in a continuous polymerization run (without polymerization reinitiation) with natural nucleotides. Mutants with a significant decrease in processivity are not selected for the next step.
The Φ29 DNA polymerase (parental enzyme or mutant) was preincubated with DNA template (72 nucleotide circular DNA including mostly repetitive sequence AGTC) with annealed DNA primer. After a short preincubation, the reaction was started with a starting mix including MnCl2, dNTP and heparin. Including the heparin in the reaction prevents polymerization from reinitiating after the polymerase dissociates from the template/primer, so that all generated DNA products are a result of continuous polymerization runs. After 20 min incubation, the reaction was stopped with EDTA and the products were separated using agarose gel electrophoresis and stained with SYBR Gold (Invitrogen). The DNA products were analyzed basically as described in Bibillo A, Eickbush T H. J Biol Chem. 2002 Sep. 20; 277(38):34836-45, Epub 2002 Jul. 5. The results were fitted with single exponential equation A*exp(−Poff*kb) where A is amplitude, Poff is the probability of premature polymerase dissociation, and kb is DNA length (1000 nucleotides). The probability of chain elongation (processivity) can be readily calculated by subtracting the Poff value from 1.0. See, e.g., Table 2 Column J.

[4] = system: A488dA4P, A633dC4P, A546dG4P, A594dT4P; experiment: Assay with four terminally labeled nucleotide analogs; conditions: four terminally labeled analogs all at 10 μM
Method: Polymerization rate (bases/min) with four analogues at 10 μM (A488dA4P, A633dC4P, A546dG4P and A594dT4P) and circular template (AGTC, a 72mer circular template largely consisting of a repeating AGTC motif) is determined.
The procedure is basically as described above in the section entitled “Assay with a single analogue at low concentration (10 μM) and three native nucleotides,” with the exception that in this assay all nucleotides are terminally labeled (A488dA4P, A633dC4P, A546dG4P, A594dT4P all at 10 μM). See, e.g., Table 2 Column I.

dTTP, dATP, dGTP = experiment: Assay with three native nucleotides (dGTP, dTTP and dATP); conditions: three native nucleotides at 20 μM; circular template, no G residues
Method: as §1
The Φ29 DNA polymerase (parental enzyme or mutant) was preincubated with DNA template (circular DNA including mostly repetitive sequence CAT, no G residues) with annealed DNA primer; the preincubation mix includes three native nucleotides (dTTP, dATP and dGTP). All subsequent steps were basically as described above in the section entitled “Assay with a single analogue at low concentration (10 μM) and three native nucleotides.” See, e.g., Table 2 Column B.

A568dC4P [5] = experiment: Assay with a single analogue at low concentration (10 μM) and three native nucleotides, A568dC4P; conditions: single analogue at 10 μM and three native nucleotides
Method: as §1

A568dC4P [6] = experiment: Nucleotide analogue concentration dependence of the polymerization rate, A568dC4P; conditions: circular AGTC template; dTTP, dATP, dGTP 20 μM each
Method: (§2) The most promising polymerase mutants are characterized by determination of the polymerization rate and Km for A488dC4P and A568dC4P and a subset of natural nucleotides (dATP, dGTP and dTTP), using a circular template (AGTC). Velocity is measured at several different concentrations of the analogs, A488dC4P (a representative good substrate) and A568dC4P (a representative less preferred substrate).
(§3) The Φ29 DNA polymerase (parental enzyme or mutant) was preincubated with a DNA template (72 nucleotide circular DNA including mostly repetitive sequence AGTC) with annealed DNA primer. The preincubation mix includes also three native nucleotides (dTTP, dATP and dGTP 20 μM each) and various concentrations of the terminally labeled analogue (A488dC4P or A568dC4P). All subsequent steps were basically as described above in the section entitled “Assay with a single analogue at low concentration (10 μM) and three native nucleotides.” An average length of the DNA products generated with DNA polymerase at an individual analogue concentration was determined, and the results were fitted with the equation k=kel*[S]*(Kd+[S])^−1 where k is the observed polymerization rate, kel is the polymerization rate at saturating substrate concentration (kel measures incorporation of multiple residues), and [S] is substrate concentration. See, e.g., Table 2 Columns C, D, E, and F.

A488dC4P [7] = experiment: Nucleotide analogue concentration dependence of the polymerization rate, A488dC4P; conditions: circular AGTC template; dTTP, dATP, dGTP 20 μM each
Method: as §2, §3

[8] = system: natural (native) nucleotides; experiment: Initial characterization: specific activity with natural (native) nucleotides
Method: The recombinant polymerase is initially evaluated on the quality of the protein preparation and basic catalytic activity. The polymerase's activity is analyzed with natural (native) nucleotides, and its specific activity (units/mg) is determined. Only catalytically competent mutants are selected for the next steps.

Alexa633-O-dC4P = experiment: Km and Vmax versus analogue Alexa633-O-dC4P; conditions: Alexa633-O-dC4P (A633dC4P)
Method: Km and Vmax were determined for exemplary recombinant Phi29 polymerases and various nucleotide analogues.

Substance	Rate High (A633dC4P)	Ratio (Low/High) (A633dC4P)	Hz Rate [1]	A488dC4P, V at 10 μM (A488dC4P [2])	Processivity [3]	A488dA4P, A633dC4P, A546dG4P, A594dT4P, V at 10 μM [4]	dTTP, dATP, dGTP (no G fork) V at 20 μM (dTTP, dATP, dGTP)	A568dC4P, V at 10 μM (A568dC4P [5])	A568dC4P, kel (A568dC4P [6])	Km (A568dC4P [6])	A488dC4P, kel (A488dC4P [7])	Km (A488dC4P [7])	Specific Activity [8]	Km (Alexa633-O-dC4P)
D12A: GST-His tagged Phi29 polymerase with exonuclease-reducing D12A mutation, no background mutation [reference compound]	55.3	0.888	1.2 Hz	–	–	–	–	–	–	–	–	–	–	–
E375A: His-tagged Phi29 polymerase with E375A and background N62D mutation	465.9	0.383	5.8 Hz	–	–	–	–	–	–	–	–	–	–	–
E375Q: His-tagged Phi29 polymerase with E375Q and background N62D mutation	531.6	0.356	6.3 Hz	–	–	–	–	–	–	–	–	–	–	–
GST-N62D: GST-His-S tagged Phi 29 DNA polymerase with exonuclease-reducing N62D mutation (SEQ ID NO:2); parental enzyme [reference compound]	349.3	0.355	2.8 Hz	346	0.9799 kb^−1	65	780	236	1660	74 µM	1200 bp/min	20 µM	–	–
His-E486A-N62D: His-tagged Phi 29 polymerase with E486A and N62D mutations (SEQ ID NOs:9, 30)	152.5	0.441	1.0 Hz	303	0.9875 kb^−1	15	1690	118	–	–	–	–	4,133,000 units/mg	–
His-E486D-N62D: His-tagged Phi 29 polymerase with E486D and N62D mutations (SEQ ID NOs:10, 31)	142.0	0.467	0.9 Hz	220	0.9885 kb^−1	15	–	134	–	–	–	–	11,634,000 units/mg	–
His-K135A-N62D: His-tagged Phi 29 polymerase with K135A and N62D mutations (SEQ ID NOs:3, 24)	272.0	0.412	1.6 Hz	292	0.9801 kb^−1	43	840	154	–	–	880 bp/min	24 µM	12,454,000 units/mg	–
His-K512A-N62D: His-tagged Phi 29 polymerase with K512A and N62D mutations (SEQ ID NOs:11, 32)	347.7	0.335	1.4 Hz	359	0.9821 kb^−1	34	–	196	–	–	–	–	16,073,000 units/mg	–
His-N62D: His-tagged N62D Phi 29 DNA polymerase; parental enzyme [reference compound]	373.2	0.362	2.7 Hz	391	0.9754 kb^−1	68	750	237	–	–	1020 bp/min	21 µM	–	–
His-NipTuck_1-N62D: His-tagged N62D Phi 29 polymerase with deletion of residues 505-525 (SEQ ID NOs:12, 33)	192.4	0.508	1.3 Hz	153	0.9585 kb^−1	24	660	116	–	–	520 bp/min	24 µM	12,400,000 units/mg	–
L384R: His-tagged Phi29 polymerase with L384R and N62D mutations (SEQ ID NOs:8, 29)	79.6	0.768	−0 Hz	–	–	–	–	–	–	–	–	–	–	–
N62D: E375K: Phi 29 polymerase with E375K and N62D mutations (SEQ ID NOs:6, 27)	516.1	0.425	6.2 Hz	–	–	–	–	–	–	–	–	–	–	12 µM
T15I N62D: His-tagged Phi29 polymerase with T15I and background N62D mutation (Table 5 r22)	105.9	0.726	0.0 Hz	–	–	–	–	–	–	–	–	–	–	–
T15I: His-tagged Phi29 polymerase with T15I mutation only, no background mutation (Table 5 r13)	416.5	0.355	3.0 Hz	–	–	–	–	–	–	–	–	–	–	–
